BindingDB's records for doi:10.7270/Q2QJ7FRJ (Nmmlsc, 2009)

biological target: Cell division control protein 42 homolog (Homo sapiens, UniProt P60953); test: wildtype Cdc42 GTP-binding inhibitors, SAR follow-up, biochemical, pyrazoline analogs, multiplex bead flow cytometry, Ki (AID 2019); conditions: not given
Sequence (P60953 whole entry): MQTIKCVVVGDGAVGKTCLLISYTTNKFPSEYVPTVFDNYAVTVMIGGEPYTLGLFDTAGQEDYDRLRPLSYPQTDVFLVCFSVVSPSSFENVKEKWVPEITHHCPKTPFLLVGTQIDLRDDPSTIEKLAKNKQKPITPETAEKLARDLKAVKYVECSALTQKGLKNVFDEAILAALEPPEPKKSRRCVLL

Row | EC50 [µM] | SMILES
1 | 2.76 | NS(=O)(=O)c1ccc(N2N=C(c3ccccc3)CC2c2ccc(Cl)cc2)cc1 (configuration not stated) [4-[3-(4-chlorophenyl)-5-phenyl-3,4-dihydropyrazol-2-yl]benzenesulfonamide]
2 | 2.59 | COc1ccc(C2CC(c3ccccc3Cl)=NN2c2ccc(S(N)(=O)=O)cc2)cc1 (configuration not stated) [4-[5-(2-chlorophenyl)-3-(4-methoxyphenyl)-3,4-dihydropyrazol-2-yl]benzenesulfonamide]
3 | 2.86 | COc1ccc(C2CC(c3cccc(F)c3)=NN2c2ccc(S(N)(=O)=O)cc2)cc1 (configuration not stated) [4-[5-(3-fluorophenyl)-3-(4-methoxyphenyl)-3,4-dihydropyrazol-2-yl]benzenesulfonamide]
4 | 1.46 | COc1ccc(C2CC(c3cccc(OC)c3)=NN2c2ccc(S(N)(=O)=O)cc2)cc1 (configuration not stated) [4-[5-(3-methoxyphenyl)-3-(4-methoxyphenyl)-3,4-dihydropyrazol-2-yl]benzenesulfonamide]
5 | 4.26 | COc1ccc(C2CC(c3ccc(F)cc3)=NN2c2ccc(S(N)(=O)=O)cc2)cc1 (configuration not stated) [4-[5-(4-fluorophenyl)-3-(4-methoxyphenyl)-3,4-dihydropyrazol-2-yl]benzenesulfonamide]
6 | 30 | O=S(=O)(O)c1ccc(N2N=C(c3ccccc3)CC2c2ccccc2)cc1 (configuration not stated) [UNM-0000305834]
7 | 2.79 | COc1ccc(C2CC(c3ccccc3F)=NN2c2ccc(S(N)(=O)=O)cc2)cc1 (configuration not stated) [UNM-0000306110]
8 | 3.36 | COc1ccc(C2CC(c3ccccc3Br)=NN2c2ccc(S(N)(=O)=O)cc2)cc1 (configuration not stated) [UNM-0000306112]
9 | 2.07 | COc1ccc(C2CC(c3cccc(Br)c3)=NN2c2ccc(S(N)(=O)=O)cc2)cc1 (configuration not stated) [UNM-0000306113]
10 | 1.3 | COc1ccc(C2CC(c3cccc(Cl)c3)=NN2c2ccc(S(N)(=O)=O)cc2)cc1 (configuration not stated) [UNM-0000306134]
11 | 2.99 | COc1ccc(C2CC(c3ccc(Br)cc3)=NN2c2ccc(S(N)(=O)=O)cc2)cc1 (configuration not stated) [UNM-0000306138]
12 | 3.77 | COc1ccc(C2CC(c3cccc(C)c3)=NN2c2ccc(S(N)(=O)=O)cc2)cc1 (configuration not stated) [UNM-0000306153]
13 | 1.07 | NS(=O)(=O)c1ccc(N2N=C(c3ccccc3)CC2c2ccc(Br)cc2)cc1 (configuration not stated) [UNM-0000306160]

same assay, conditions: inactive by the depositor's call

Row | EC50 [µM] | SMILES
14 | 30 | NS(=O)(=O)c1ccc(N2N=C(c3ccccc3)CC2c2ccccc2)cc1 (configuration not stated) [4-(3,5-diphenyl-3,4-dihydropyrazol-2-yl)benzenesulfonamide]
15 | 30 | NS(=O)(=O)c1ccc(N2N=C(c3ccccc3)CC2c2ccccc2Br)cc1 (configuration not stated) [4-[3-(2-bromophenyl)-5-phenyl-3,4-dihydropyrazol-2-yl]benzenesulfonamide]
16 | 30 | COc1ccc(C2CC(c3ccc(C(F)(F)F)cc3)=NN2c2ccc(S(N)(=O)=O)cc2)cc1 (configuration not stated) [4-[3-(4-methoxyphenyl)-5-[4-(trifluoromethyl)phenyl]-3,4-dihydropyrazol-2-yl]benzenesulfonamide]
17 | 30 | COc1ccc(C2CC(C)=NN2c2ccc(S(N)(=O)=O)cc2)cc1 (configuration not stated) [4-[3-(4-methoxyphenyl)-5-methyl-3,4-dihydropyrazol-2-yl]benzenesulfonamide]
18 | 30 | NS(=O)(=O)c1ccc(N2N=C(c3ccc(Br)cc3)CC2c2ccc(F)cc2)cc1 (configuration not stated) [4-[5-(4-bromophenyl)-3-(4-fluorophenyl)-3,4-dihydropyrazol-2-yl]benzenesulfonamide]
19 | 5.05 | COc1ccc(-c2cc(-c3ccccc3)nn2-c2ccc(S(N)(=O)=O)cc2)cc1 [4-[5-(4-methoxyphenyl)-3-phenylpyrazol-1-yl]benzenesulfonamide]
20 | 30 | COc1ccc(C2CC(C3CCCCC3)=NN2c2ccc(S(N)(=O)=O)cc2)cc1 (configuration not stated) [4-[5-cyclohexyl-3-(4-methoxyphenyl)-3,4-dihydropyrazol-2-yl]benzenesulfonamide]
21 | 30 | O=S(=O)(c1ccc(N2N=C(c3ccc(Br)cc3)CC2c2ccccc2)cc1)C(F)F (configuration not stated) [5-(4-bromophenyl)-2-[4-(difluoromethylsulfonyl)phenyl]-3-phenyl-3,4-dihydropyrazole]
22 | 30 | FC(F)(F)c1ccccc1C1CC(c2ccc(Br)cc2)=NN1c1ccccc1 (configuration not stated) [5-(4-bromophenyl)-2-phenyl-3-[2-(trifluoromethyl)phenyl]-3,4-dihydropyrazole]
23 | 30 | O=[N+]([O-])c1cccc(C2C[C-](c3ccc(F)cc3)N=[N+]2c2ccccc2)c1 (configuration not stated) [5-(4-fluorophenyl)-3-(3-nitrophenyl)-2-phenyl-3,4-dihydropyrazole]
24 | 30 | Cc1ccc(-c2cc(C(F)(F)F)nn2-c2ccc(S(N)(=O)=O)cc2)cc1 [Celecoxib]
25 | 3.37 | COc1ccc(C2CC(c3ccc(N(C)C)cc3)=NN2c2ccc(S(N)(=O)=O)cc2)cc1 (configuration not stated) [KUC103422N]
26 | 30 | COc1ccc(C2CC(C(C)(C)C)=NN2c2ccc(S(N)(=O)=O)cc2)cc1 (configuration not stated) [KUC103450N]
27 | 30 | COc1ccc(C2CC(c3ccccc3C(F)(F)F)=NN2c2ccc(S(N)(=O)=O)cc2)cc1 (configuration not stated) [KUC103474N]
28 | 30 | Cc1ccccc1N1N=C(c2ccccc2)CC1c1ccc(N(C)C)cc1 (configuration not stated) [N,N-dimethyl-4-[2-(2-methylphenyl)-5-phenyl-3,4-dihydropyrazol-3-yl]aniline]
29 | 30 | COc1ccc(C2CC(c3ccc(Br)cc3)=NN2c2ccccc2Cl)cc1 (configuration not stated) [UNM-0000305832]
30 | 30 | COc1ccc(C2=NN(c3ccccc3)C(c3ccc(Cl)cc3)C2)cc1 (configuration not stated) [UNM-0000305833]

Row | EC50 [µM] | SMILES
31 | 30 | Cc1cccc(N2N=C(c3ccccc3)CC2c2ccccc2)c1 (configuration not stated) [UNM-0000305835]
32 | 30 | O=[N+]([O-])c1ccc([N+]2=N[C-](c3ccccc3)CC2c2ccc(O)cc2)cc1 (configuration not stated) [UNM-0000305838]
33 | 30 | CN(C)c1ccc(C2CC(c3ccc(Br)cc3)=NN2c2ccccc2)cc1 (configuration not stated) [UNM-0000305846]
34 | 30 | CN(C)c1ccc(C2CC(c3ccc(Cl)cc3)=NN2c2ccccc2)cc1 (configuration not stated) [UNM-0000305847]
35 | 30 | COc1ccc(C2=NN(c3ccccc3)C(c3ccc(OC)c(OC)c3C(=O)O)C2)cc1 (configuration not stated) [UNM-0000305848]
36 | 30 | Cc1ccccc1[N+]1=N[C-](c2ccccc2)CC1c1cccc([N+](=O)[O-])c1 (configuration not stated) [UNM-0000305854]
37 | 30 | COc1ccccc1N1N=C(c2ccccc2)CC1c1ccccc1 (configuration not stated) [UNM-0000305855]
38 | 30 | O=[N+]([O-])c1cccc(C2C[C-](c3ccccc3)N=[N+]2c2ccccc2)c1 (configuration not stated) [UNM-0000305857]
39 | 30 | COc1ccc(C2CC(c3ccc(Cl)cc3)=NN2c2ccccc2)cc1OC (configuration not stated) [UNM-0000305858]
40 | 30 | FC(F)(F)c1cccc(N2N=C(c3ccc(Cl)cc3)CC2c2ccccc2Cl)c1 (configuration not stated) [UNM-0000305859]
41 | 30 | COc1ccc(C2=NN(c3ccccc3F)C(c3ccc(F)cc3)C2)cc1 (configuration not stated) [UNM-0000305860]
42 | 30 | COc1ccc(C2=NN(c3ccc(Cl)cc3)C(c3ccccc3F)C2)cc1 (configuration not stated) [UNM-0000305863]
43 | 30 | COc1ccc(C2CC(c3ccc(F)cc3)=NN2c2ccccc2)cc1OC (configuration not stated) [UNM-0000305864]
44 | 30 | CN(C)c1ccc(C2CC(c3ccc(F)cc3)=NN2c2ccccc2)cc1 (configuration not stated) [UNM-0000305866]
45 | 30 | COc1ccc(C2CC(c3ccccc3)=NN2c2ccc(C(N)=O)cc2)cc1 (configuration not stated) [UNM-0000305870]
46 | 30 | COc1ccc(C2CC(c3ccccc3)=NN2c2ccc(C(=O)O)cc2)cc1 (configuration not stated) [UNM-0000306085]
47 | 4.13 | COc1ccc(C2CC(c3ccccc3C)=NN2c2ccc(S(N)(=O)=O)cc2)cc1 (configuration not stated) [UNM-0000306152]
